Earlier results, collected in patent publication US9006451B1, “2-anilinonicotinyl based chalcones useful as potential anticancer agents and process for preparation thereof” (Council of Scientific and Industrial Research, priority 2013, dated 2015).
pIC50: −log10 of the molar value.

System: breast cancer cell line MCF7
Details: cited from earlier work

## COc1ccc(C(=O)/C=C/c2c(OC)cccc2OC)c(OC)c1 [B, (E)-1-(2,4-dimethoxyphenyl)-3-(2,6-dimethoxyphenyl)prop-2-en-1-one]
J. Med. Chem. 2008, 51, 2307-2310, read-out: IC50 against breast cancer cell line MCF7
  pIC50: 4.12
Known chalcone, literature value
  GI50: 75 µM
